In ChEMBL document CHEMBL3727354, “3-(2-amino-ethyl)-5-(3-cyclohexyl-propylidene)-thiazolidine-2,4-dione and its derivatives as multiple signaling pathway inhibitors and for the treatment of cancer” (2011):
The source made the active and inactive calls. The rule behind the calls is not given here.

Tests used:
[1] = Cell cycle arrest in human U937 cells assessed as accumulation at G2/M phase after 24 hrs by propidium iodide staining-based flow cytometric analysis; assay type: functional; conditions: U-937
[2] = Cell cycle arrest in human U937 cells assessed as decrease in cell level at S phase after 24 hrs by propidium iodide staining-based flow cytometric analysis; assay type: functional; conditions: U-937
[3] = Inhibition of Raf/MEK/ERK pathway in human U937 cells assessed as inhibition of ERK1/2 phosphorylation at Thr202/Tyr204 at 3 uM preincubated for 1 hr followed by PMA stimulation measured after 30 mins by Western blot analysis; assay type: cell-based; conditions: U-937
[4] = Inhibition of Raf/MEK/ERK pathway in human U937 cells assessed as reduction of MEK phosphorylation preincubated for 1 hr followed by PMA stimulation measured after 30 mins by Western blot analysis; assay type: cell-based; conditions: U-937
[5] = Inhibition of Raf/MEK/ERK pathway in human U937 cells assessed as reduction of MEK phosphorylation at 0.3 to 30 uM preincubated for 1 hr followed by PMA stimulation measured after 30 mins by Western blot analysis in presence of MEK inhibitor PD184352; assay type: cell-based; conditions: U-937
[6] = Inhibition of PI3K/Akt pathway in human U937 cells assessed as reduction of Akt phosphorylation preincubated for 1 hr followed by PMA stimulation measured after 30 mins by Western blot analysis; assay type: cell-based; conditions: U-937
U-937 = assay: Induction of apoptosis in human U937 cells after 24 hrs by annexin V/propidium iodide staining-based flow cytometric analysis; assay type: functional, cell-based
M12 = assay: Induction of apoptosis in human M12 cells after 24 hrs by annexin V/propidium iodide staining-based flow cytometric analysis; assay type: functional, cell-based
DU-145 = assay: Induction of apoptosis in human DU145 cells at 5 to 25 uM after 24 hrs by annexin V/propidium iodide staining-based flow cytometric analysis; assay type: functional, cell-based
[7] = Cell cycle arrest in human U937 cells assessed as decrease in cell level at G0/G1 phase after 24 hrs by propidium iodide staining-based flow cytometric analysis; assay type: functional; conditions: U-937
B16-F10 [8] = assay: Antitumor activity against mouse B16F10 cells implanted in B6C3F1 mouse assessed as decrease in lung tumor nodules at 20 mg/kg administered daily via oral gavage started one day before tumor implantation and stopped at day 15 post tumor implantation measured at day 18; assay type: functional, organism-based
Mus musculus [9] = assay: Toxicity in B6C3F1 mouse assessed as effect on general health at 30 to 80 mg/kg, po administered for 21 days; assay type: organism-based; conditions: in vivo, 504 h
Mus musculus [10] = assay: Toxicity in B6C3F1 mouse assessed as effect on body weight at 30 to 80 mg/kg, po administered for 21 days; assay type: organism-based; conditions: in vivo, 504 h
B16-F10 [11] = assay: Antitumor activity against mouse B16F10 cells implanted in B6C3F1 mouse assessed as increase in mouse survival rate at 50 mg/kg, ip administered on day 11 post tumor implantation measured twice a day during compound dosing; assay type: functional, organism-based
Mus musculus [12] = assay: Toxicity in B6C3F1 mouse assessed as effect on general health at 20 mg/kg, po administered for 21 days; assay type: organism-based; conditions: in vivo, 504 h
Mus musculus [13] = assay: Toxicity in B6C3F1 mouse assessed as effect on body weight at 20 mg/kg, po administered for 21 days; assay type: organism-based; conditions: in vivo, 504 h

SMILES	Activity [1]	Activity [2]	inhibition [3]	inhibition [4]	inhibition [5]	inhibition [6]	Activity (U-937)	Activity (M12)	Activity (DU-145)	Activity [7]	Activity (B16-F10 [8])	Activity (Mus musculus [9])	Activity (Mus musculus [10])	Activity (B16-F10 [11])	Activity (Mus musculus [12])	Activity (Mus musculus [13])
Cl.NCCN1C(=O)S/C(=C\CCC2CCCCC2)C1=O	Active	Active	Active	Dose-dependent effect	inactive	Dose-dependent effect	Dose-dependent effect	Dose-dependent effect	inactive	Active	Active	Non-toxic	Non-toxic	–	–	–
Cl.NCCN1C(=O)S/C(=C\CCc2ccccc2)C1=O	Active	Active	–	–	–	–	–	–	–	Active	–	–	–	Active	Non-toxic	Non-toxic
